According to patent US5486597A, “Tetrapeptide derivatives and analogues” (James Black Foundation Limited, priority 1990, dated 1996):
Non-standard residues stand in square brackets, D forms with d. Residues, ends and D or L forms follow the SMILES beside them. *: point of attachment. Phe(4-Cl) = N[C@@H](Cc1ccc(Cl)cc1)C(=O)O; 1Nal = N[C@@H](Cc1cccc2ccccc12)C(=O)O; 2Nal = N[C@@H](Cc1ccc2ccccc2c1)C(=O)O; d2Nal = N[C@H](Cc1ccc2ccccc2c1)C(=O)O; Fmoc = O=C(OCC1c2ccccc2-c2ccccc21)*; Boc = CC(C)(C)OC(=O)*

How the values were obtained:
Format in all cases: cell-based
[1] = biological target: T1, cholecystokinin receptors (Cavia porcellus, UniProt Q63931); test: CCK-antagonist activity in isolated guinea-pig gall-bladder strip preparations; conditions: guinea-pig gall-bladder strips; CCK-8 as agonist; test compound incubated for 60 minutes; standard errors less than 5%
T1 construct: Isolated, strip preparations were prepared from gall-bladders removed from male Dunkin-Hartley guinea-pigs; from tissue; host or cells: guinea-pig gall-bladder strips
T1 sequence (Q63931 1-430): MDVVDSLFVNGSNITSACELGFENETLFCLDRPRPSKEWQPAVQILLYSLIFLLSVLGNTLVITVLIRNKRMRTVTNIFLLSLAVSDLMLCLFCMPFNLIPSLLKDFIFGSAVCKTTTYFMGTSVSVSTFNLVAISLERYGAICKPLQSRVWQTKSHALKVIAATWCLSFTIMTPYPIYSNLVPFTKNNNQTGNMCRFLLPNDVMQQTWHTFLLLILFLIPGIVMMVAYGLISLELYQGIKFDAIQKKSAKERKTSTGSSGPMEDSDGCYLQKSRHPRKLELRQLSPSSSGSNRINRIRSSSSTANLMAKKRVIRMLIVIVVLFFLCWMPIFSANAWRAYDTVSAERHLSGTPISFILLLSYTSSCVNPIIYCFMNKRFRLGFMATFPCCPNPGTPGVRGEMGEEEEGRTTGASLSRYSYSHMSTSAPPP
Description: The compounds of the invention were also assayed for CCK-antagonist activity as follows:
Isolated, strip preparations were prepared from gall-bladders removed from male Dunkin-Hartley guinea-pigs (250-500 g body weight) according to the method of La Morte, W. W., et al., J.P.E.T., 217, (3), 638-644 (1981).
The complete gall-bladder is removed and opened along the longitudinal axis. Strips measuring 3 mm in the longitudinal axis and 1 mm in the transverse axis are cut and then tied with cotton to stainless steel wires. The preparation is connected to a GRASS FTO3 isometric transducer under an initial loading tension of 1 g and is immersed in 20 mls of Krebs solution maintained at 37° C. and gassed with 95% O2 /5% CO2. The Krebs solution is as detailed above in connection with the fundus assay, except that the Ca^2+ concentration is decreased to 0.5 mM. After 30 mins the preparation is washed. Drug addition begins after an initial 90 min stabilisation period. Responses are measured as changes in tension from that immediately prior to any drug addition. Single cumulative agonist concentration-effect curves, using CCK-8 as agonist, are obtained on each preparation in the absence and presence of test compound which has been incubated for 60 minutes. The antagonist activity of the test compound is estimated and expressed as the negative logarithm (base 10) of the equilibrium dissociation constants (pK8) using the modifications of standard competitive analysis described by Black et al., Br. J. Pharmacol.,86,571-579, (1985) and Shankley et al., Br. J. Pharmacol.,94,264-274 (1988).

gastrin receptor [2] = biological target: T2, gastrin receptor (Cavia porcellus, UniProt H0VZC5); test: guinea-pig fundus assay for gastrin activity (stomach muscle strips); conditions: 10^-8 M devazepide present, 60 minute equilibration, agonist e.g. pentagastrin, standard errors less than 5%
T2 construct: Strips of muscle (approximately 2.5 cm by 1 cm) are removed from the proximal area of the stomach; from tissue; host or cells: guinea-pig proximal stomach (fundus) muscle strips
T2 sequence (H0VZC5 1-426): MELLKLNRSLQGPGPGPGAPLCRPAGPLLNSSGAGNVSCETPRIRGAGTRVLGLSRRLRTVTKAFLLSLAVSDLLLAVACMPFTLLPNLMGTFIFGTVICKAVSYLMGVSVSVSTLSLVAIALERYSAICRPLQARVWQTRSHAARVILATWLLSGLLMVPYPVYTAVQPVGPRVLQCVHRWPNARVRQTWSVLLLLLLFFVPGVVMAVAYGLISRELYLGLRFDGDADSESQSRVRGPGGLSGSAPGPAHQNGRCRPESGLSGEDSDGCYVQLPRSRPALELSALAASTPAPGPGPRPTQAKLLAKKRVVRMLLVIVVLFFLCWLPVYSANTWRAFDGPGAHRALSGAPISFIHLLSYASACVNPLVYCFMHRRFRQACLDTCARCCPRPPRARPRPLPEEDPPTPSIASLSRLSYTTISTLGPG
Description: The compounds were assayed for gastrin activity using the mouse stomach assay as described by Black, J. W. and Shankley, N. P., Br. J. Pharmacol., 86, 571-579, (1985), and also in the guinea-pig fundus assay, as follows:
The stomach is removed from a male Dunkin-Hartley guinea-pig (250-500 g), and Krebs solution is injected through a hypodermic needle under the top stomach muscle layer. The composition (mM) of the Krebs solution is as follows: Na^+ 143, K^+ 5.9, Ca^2+ 2.5, Mg^2+ 1.2, Cl^- 128, H2 PO4^- 2.2, HCO3^- 24.9, SO4^2- 1.2, dextrose 10. Strips of muscle (approximately 2.5 cm by 1 cm) are removed from the proximal area of the stomach (one from each side) and tied with cotton thread to isotonic transducers under an initial loading tension of 0.35 g.
The preparation is immersed in 20 mls of Krebs solution containing 10^-8 M devazepide (25 μl 2×10^-3 M devazepide/100% DMF solution in 5 dm^3 Krebs) and gassed with 95% O2 /5% CO2. The function of the devazepide is to block possible effects at CCK receptors present in the tissue.
The preparation is washed twice over a 60 minute period then 10 mM KCl is added. At 90 minutes, test compounds (ie. potential antagonists) are added and a further 60 minute equilibration period allowed. After this time, cumulative agonist (e.g. pentagastrin) dose-response curves are constructed.

gastrin receptor [3] = biological target: T3, gastrin receptor (Mus musculus, UniProt P56481); test: mouse stomach assay for gastrin activity (isolated stomach, acid secretion); conditions: for Acid seretion at 10^-5 M test compound, relative to pentagastrin (%): mouse stomach, NS = not significant
T3 construct: assayed for gastrin activity using the mouse stomach assay; from tissue; host or cells: isolated mouse stomach
T3 sequence (P56481 1-453): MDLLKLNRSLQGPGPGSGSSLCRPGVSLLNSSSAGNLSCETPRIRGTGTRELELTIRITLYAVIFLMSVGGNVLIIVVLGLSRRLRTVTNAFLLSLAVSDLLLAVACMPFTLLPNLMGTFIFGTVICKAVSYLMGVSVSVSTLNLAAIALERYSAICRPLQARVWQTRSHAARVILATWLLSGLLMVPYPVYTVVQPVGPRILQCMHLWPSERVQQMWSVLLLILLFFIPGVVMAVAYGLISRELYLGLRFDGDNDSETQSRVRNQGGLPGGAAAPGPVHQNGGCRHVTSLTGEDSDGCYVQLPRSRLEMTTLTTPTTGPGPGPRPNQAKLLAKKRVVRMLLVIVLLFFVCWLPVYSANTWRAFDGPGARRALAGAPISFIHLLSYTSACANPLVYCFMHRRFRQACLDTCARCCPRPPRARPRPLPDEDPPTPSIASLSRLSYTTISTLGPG
Description: The compounds were assayed for gastrin activity using the mouse stomach assay as described by Black, J. W. and Shankley, N. P., Br. J. Pharmacol., 86, 571-579, (1985), and also in the guinea-pig fundus assay, as follows: […]

[4] = isolated mouse stomach assay, gastrin antagonism, standard errors less than 5%

| Molecule | pKB [1] | pKB (gastrin receptor [2]) | other results |
| --- | --- | --- | --- |
| CCCCOC(=O)N[C@@H](Cc1c[nH]c2ccccc12)C(=O)N[C@@H](Cc1ccc2ccccc2c1)C(=O)N[C@@H](CC(=O)O)C(=O)NCCc1ccccc1C(F)(F)F [Example 27, N-Butyloxycarbonyl-L-tryptophyl-L-3-(2-naphthyl)alanyl-L-aspartyl-2-trifluoromethylphenethylamide] | 6.5 | 5.8 | – |
| CC(C)(C)OC(=O)N[C@@H](Cc1c[nH]c2ccccc12)C(=O)N[C@@H](Cc1ccc2ccccc2c1)C(=O)N[C@@H](CC(=O)O)C(=O)NCCc1ccc([N+](=O)[O-])cc1 [Example 30, N-t-Butyloxycarbonyl-L-tryptophyl-L-3-(2-naphthyl)alanyl-L-aspartyl-4-nitrophenethylamide] | 6.6 | 5.7 | – |
| COc1ccc(CNC(=O)[C@H](CC(=O)O)NC(=O)[C@H](Cc2ccc3ccccc3c2)NC(=O)[C@H](Cc2c[nH]c3ccccc23)NC(=O)OC(C)(C)C)cc1 [Example 51] | 7.0 | 5.7 | – |
| CC(C)(C)CCNC(=O)[C@H](CC(=O)O)NC(=O)[C@H](Cc1ccc2ccccc2c1)NC(=O)[C@H](Cc1c[nH]c2ccccc12)NC(=O)OC(C)(C)C [Example 64, N-t-Butyloxycarbonyl-L-tryptophyl-L-3-(2-naphthyl)alanyl-L-aspartyl-3,3-dimethylbutylamide] | 7.0 | 5.9 | – |
| CC(C)(C)OC(=O)N[C@@H](Cc1c[nH]c2ccccc12)C(=O)N[C@@H](Cc1ccc2ccccc2c1)C(=O)N[C@@H](CC(=O)O)C(=O)NCCc1ccncc1 [Example 44, N-t-Butyloxycarbonyl-L-tryptophyl-L-3-(2-naphthyl)alanyl-L-aspartyl-2-(4-pyridyl)ethylamide] | 6.2 | 6.0 | – |
| COc1cc2c(cc1OC)CN(C(=O)C(CC(=O)O)NC(=O)C(Cc1ccc3ccccc3c1)NC(=O)C(Cc1c[nH]c3ccccc13)NC(=O)OC(C)(C)C)CC2 [Example 48, N-t-Butyloxycarbonyl-L-tryptophyl-L-3-(2-naphthyl)alanyl-L-aspartyl-2-N-(6,7-dimethoxy-1,2,3,4-tetrahydro)isoquinolinamide] | 6.6 | 5.7 | – |
| CC(C)(C)OC(=O)N[C@@H](Cc1c[nH]c2ccccc12)C(=O)N[C@@H](Cc1cccc2ccccc12)C(=O)N[C@@H](CC(=O)O)C(=O)N[C@@H](Cc1ccccc1)C(N)=O [Example 4, N-t-Butyloxycarbonyl-L-tryptophyl-L-3-(1-naphthyl)alanyl-L-aspartyl-L-phenylalaninamide] (Boc-W[1Nal]DF-NH2) | – | – | Kb (gastrin receptor [2]): 1580 nM |
| N-t-Butyloxycarbonyl-L-tryptophyl-L-3-(2-naphthyl)alanyl-L-aspartyl-1-indanylamide [Example 25] | 6.3 | 5.7 | – |
| N-t-Butyloxycarbonyl-L-tryptophyl-L-3-(2-naphthyl)alanyl-L-aspartyl-α-2-phenethylester [Example 63] | 7.0 | 5.9 | – |
| CC(C)(C)OC(=O)N[C@@H](Cc1c[nH]c2ccccc12)C(=O)N[C@H](Cc1ccc2ccccc2c1)C(=O)N[C@@H](CC(=O)O)C(=O)N[C@@H](Cc1ccccc1)C(N)=O [Example 3, N-t-Butyloxycarbonyl-L-tryptophyl-D-3-(2-naphthyl)alanyl-L-aspartyl-L-phenylalaninamide] (Boc-W[d2Nal]DF-NH2) | – | – | Kb (gastrin receptor [2]): 2510 nM |
| N-t-Butyloxycarbonyl-L-tryptophyl-L-3-(2-naphthyl)alanyl-L-aspartyl-L-3-cyclohexylalaninamide [Example 36] | 6.3 | 5.4 | – |
| N-t-Butyloxycarbonyl-L-tryptophyl-L-3-(2-naphthyl)alanyl-L-aspartyl]-3-azaspiro[5.4]decylamide [Example 62] | – | 5.6 | – |
| CC(C)(C)OC(=O)N[C@@H](Cc1c[nH]c2ccccc12)C(=O)N[C@@H](Cc1ccc2ccccc2c1)C(=O)N[C@@H](CC(=O)O)C(=O)N[C@@H](Cc1ccc(Cl)cc1)C(N)=O [Example 11, N-t-Butyloxycarbonyl-L-tryptophyl-L-3-(2-naphthyl)alanyl-L-aspartyl-L-(4-chlorophenylalanin)amide] (Boc-W[2Nal]D[Phe(4-Cl)]-NH2) | 5.9 | – | pKB mouse stomach (gastrin receptor [3]; [4]): 6.6; Acid seretion at 10^-5 M test compound, relative to pentagastrin (%) (gastrin receptor [3]): 60% |
| NC(=O)[C@H](Cc1ccccc1)NC(=O)[C@H](CC(=O)O)NC(=O)[C@H](Cc1ccc2ccccc2c1)NC(=O)[C@H](Cc1c[nH]c2ccccc12)NC(=O)OCC1c2ccccc2-c2ccccc21 [Example 16, N-9-Fluorenylmethoxycarbonyl-L-tryptophyl-L-3-(2-naphthyl)alanyl-L-aspartyl-L-phenylalaninamide] (Fmoc-W[2Nal]DF-NH2) | – | – | Kb (gastrin receptor [3]; isolated mouse stomach assay, gastrin antagonism, standard errors less than 5%, read-out: pKB mouse stomach (converted)): 2000 nM; Acid seretion at 10^-5 M test compound, relative to pentagastrin (%) (gastrin receptor [3]): 67%; Kb [1]: 2510 nM |
| NC(=O)[C@H](Cc1ccccc1)NC(=O)[C@H](CC(=O)O)NC(=O)[C@H](Cc1ccc2ccccc2c1)NC(=O)Cc1c[nH]c2ccccc12 [Example 20, Indole-3-acetamido-L-3-(2-naphthyl)alanyl-L-aspartyl-L-phenylalaninamide] | 6.7 | – | pKB mouse stomach (gastrin receptor [3]; [4]): 6.2; Acid seretion at 10^-5 M test compound, relative to pentagastrin (%) (gastrin receptor [3]): 33% |
